Data set [1] concerns Pathogenesis-related protein (PR-1). Type of data set: in vivo, Solanum tuberosum. Conditions: BABA 0.3 g/l; all three genotypes.
The subject of the next data set is P. infestans. Type of data set: in vivo, Phytophthora infestans. Conditions: BABA 0.3 g/l; Desiree, Bintje, Ovatio; 6 dpi.

Structures are written as SMILES. Like-named read-outs stand apart in the source and are kept apart here.

As to `CC(N)CC(=O)O` (stereo not drawn) [BABA, β-aminobutyric acid], in data set [1], the “PR-1 protein induction compared with SBE” value was “stronger”. The “necrotic dots or lesions on treated plants” value (Bintje, BABA treatment (0.3 g/l)) was “no such lesions were observed” and the “necrotic dots or lesions on treated plants” value (Desiree, two days after BABA treatment (0.3 g/l)) is on record as “Small necrotic dots or lesions”. Besides, the “effect on lesion size, SBE compared with BABA-treated plants” value in the data set on P. infestans was “not significantly different”.

The values are drawn from patent publication US9681669B2 (priority 2012, dated 2017).
